Results reported in US11464824B2, “Peptide capable of improving cognitive function” (THE FOOD SCIENCE INSTITUTE FOUNDATION, priority 2018, dated 2022).

Columns and labels:
[1] = reported in NPL 4; cited from earlier work
[2] = system: male dd Y mice fed a 60% high-fat diet; test: Episodic memory evaluation test: object recognition test (ORT); format: in vivo; settings: YLG 10 mg/kg/day oral for 1 week, test on day 7, FIG. 2
Description: (§1) Four-week-old male dd Y mice were divided into 3 groups (8 mice per group). The mice were reared for 1 week such that Group 1 was fed a normal diet (3.85 kcal/g: 20 kcal % of protein, 70 kcal % of carbohydrate, and 10 kcal % of lipid), and Group 2 and Group 3 were fed a 60% high-fat diet (5.24 kcal/g: 20 kcal % of protein, 20 kcal % of carbohydrate, and 60 kcal % of lipid). During the period, the YLG tripeptide was orally administered to Group 3 daily in an amount of 10 mg/kg/day.
(§2) On day 6 and day 7 after the initiation of feeding, two behavioral tests (episodic memory evaluation test: object recognition test (ORT), and a spatial memory evaluation test: object location test (OLT)), which are known as cognitive function evaluation systems, were performed, as well as a hippocampal neurogenesis evaluation test using deoxyuridine bromide (BrdU). On day 7, the brain hippocampus was removed, and a BDNF mRNA expression level in the hippocampus was measured.
The ORT is a behavioral test that evaluates episodic memory, which is part of cognitive functions. […] First, the mouse was placed in a square open field for 5 minutes for habituation. […] In Trial 2, the approach time of the mouse for each object was measured. […] The cognitive function of the mice was evaluated using the ratio of the approach time for the novel object to the total approach time for both objects as an index. […]

[3] = system: male dd Y mice fed a 60% high-fat diet; test: Glucose tolerance test; format: in vivo; settings: YLG 10 mg/kg/day oral; for blood glucose level in the glucose tolerance test (relative value, level immediately before glucose = 100): day 7
Description: as §1, with “Twelve-week-old” for “Four-week-old”, “(n=8).” for “(8 mice per group).”, “peptide” for “tripeptide”
On day 7 after the initiation of feeding, glucose (2 g/kg/p.o.) was administered after fasting for 5 hours. The administration of the YLG peptide on day 7 was performed 2 hours before the glucose administration. Blood was collected from the tail vein immediately before the glucose administration, and 15 minutes, 30 minutes, and 60 minutes after the administration to measure the blood glucose level using a glucose sensor (Nipro Corporation).
(§3) Tables 1 and 2 show changes in blood glucose level in the glucose tolerance test and changes in blood glucose level in the insulin tolerance test, respectively. The numerical values shown in each table are relative values, taking the blood glucose level immediately before the administration of glucose or insulin as 100.

[4] = system: male dd Y mice fed a 60% high-fat diet; test: Spatial memory evaluation test: object location test (OLT); format: in vivo; settings: YLG 10 mg/kg/day oral for 1 week, test on day 7, FIG. 4
Description: as §1, §2
The OLT is a behavioral test that evaluates spatial memory, which is part of cognitive functions. […] The difference lies in that the location of only one object is changed in Trial 2. […] The cognitive function of the mice was evaluated using the ratio of the approach time for the object placed at the novel location to the total approach time for both objects as an index. […]

[5] = system: BrdU-positive cells in the hippocampal dentate gyrus; test: Hippocampal neurogenesis evaluation test using deoxyuridine bromide (BrdU); format: in vivo; settings: high-fat diet mice, YLG 10 mg/kg/day oral, day 7; FIG. 5
Description: as §1, §2
On day 6 after the initiation of feeding, 100 mg/kg of deoxyuridine bromide (BrdU) was intraperitoneally administered to the mice of each group (n=4), and after 24 hours (day 7), perfusion fixation was performed using 4% paraformaldehyde. Next, the whole brain was extracted and frozen to prepare frozen sections on a cryostat. […]

[6] = system: BDNF mRNA expression in the hippocampus; test: Brain-derived neurotrophic factor (BDNF) mRNA expression measurement test; format: in vivo; settings: high-fat diet mice, YLG 10 mg/kg/day oral, day 7, RT-PCR, standardized with β-actin mRNA; FIG. 6
Description: as §1, §2
On day 7 after the initiation of feeding, the mice in each group (n=8) were dissected under anesthesia, and the hippocampus was removed from the brain. The removed hippocampus was stored in RNA later for RNA extraction. […] Then, the brain-derived neurotrophic factor (BDNF) mRNA expression level in the hippocampus was measured by RT-PCR according to a standard method. […]

[7] = system: male dd Y mice fed a 60% high-fat diet; test: Insulin tolerance test; format: in vivo; settings: YLG 10 mg/kg/day oral; for blood glucose level in the insulin tolerance test (relative value, level immediately before insulin = 100): day 7
Description: As in the glucose tolerance test, twelve-week-old male dd Y mice were divided into 3 groups (n=6-7), and the mice were reared for 1 week such that Group 1 was fed a normal diet, and Group 2 and Group 3 were fed a 60% high-fat diet. During the period, the YLG peptide was orally administered to Group 3 daily in an amount of 10 mg/kg/day. On day 7 after the initiation of feeding, insulin (0.5 U/kg/i.p.) was administered after fasting for 5 hours. The administration of the YLG peptide on day 7 was performed 2 hours before the insulin administration. Blood was collected from the tail vein immediately before insulin administration, and 15 minutes, 30 minutes, and 60 minutes after the administration to measure the blood glucose level using a glucose sensor (Nipro Corporation).
as §3

Tyr-Leu-Gly [YLG peptide]
anxiolytic effect [1]: anxiolytic effect | ratio of the approach time for the novel object to the total approach time for both objects (ORT, episodic memory) [2]: recovered to a level equal to that of the normal diet group | blood glucose level in the glucose tolerance test (relative value, level immediately before glucose = 100) ([3]; 15 min after glucose 2 g/kg p.o.): 190 ± 14 | blood glucose level in the glucose tolerance test (relative value, level immediately before glucose = 100) ([3]; 30 min after glucose 2 g/kg p.o.): 169 ± 10 | blood glucose level in the glucose tolerance test (relative value, level immediately before glucose = 100) ([3]; 60 min after glucose 2 g/kg p.o.): 113 ± 5 | effect on the increase in blood glucose level caused by high-fat diet intake (glucose tolerance test, in words) [3]: prevented the increase in blood glucose level | ratio of the approach time for the object placed at the novel location to the total approach time for both objects (OLT, spatial memory) [4]: recovered to a level equal to that of the normal diet group | number of BrdU-positive cells in the hippocampal dentate gyrus (hippocampal neurogenesis) [5]: recovered to a level equal to that of the normal diet group | BDNF mRNA expression level in the hippocampus [6]: recovered to a level equal to or even greater than that of the normal diet group | blood glucose level in the insulin tolerance test (relative value, level immediately before insulin = 100) ([7]; 15 min after insulin 0.5 U/kg i.p.): 90 ± 2 | blood glucose level in the insulin tolerance test (relative value, level immediately before insulin = 100) ([7]; 30 min after insulin 0.5 U/kg i.p.): 78 ± 3 | blood glucose level in the insulin tolerance test (relative value, level immediately before insulin = 100) ([7]; 60 min after insulin 0.5 U/kg i.p.): 70 ± 4 | effect on insulin resistance induced by the high-fat diet (glucose and insulin tolerance tests, in words) [7]: improved insulin resistance induced by the high-fat diet
